# Experimental data published in US12139487B2, “Compounds and uses thereof” (Foghorn Therapeutics Inc., priority 2022, dated 2024).
# Test system: BRM-dependent transcription (BRG1 mutant lung cancer cell line A549)
# Assay: BRM-dependent transcription, MMTV luciferase reporter in BRG1 mutant A549 cells
# Assay type: cell-based
# Conditions: Table 11; for IC50: A549-MMTV luciferase reporter, dexamethasone induced, 6 hours; for Ratio (MDA-MMTV IC50 (μM) divided by A549-MMTV IC50 (μM)): MMTV luciferase reporter cell lines, selectivity BRG1/BRM
# Protocol: The potential inhibitory effects of compounds on BRG1 and BRM dependent transcription was study by testing the activity of against the BRG1 mutant lung cancer cell line A549 and a MDA cell line with BRM removed by CRISPR. Both cell lines were genetically engineered with a BRG1 or BRM-dependent mouse mammary tumor virus luciferase reporter. Luciferase transcription was induced by dexamethasone in the presence of compound at different concentrations and luminescence was measured using a plate reader 6 hours after stimulation.
SMILES,"IC50 (Homo sapiens, A549, 6 h) [nM]",Ratio (MDA-MMTV IC50 (μM) divided by A549-MMTV IC50 (μM)),IC50 [nM]
[2H]C([2H])([2H])C([2H])([2H])Oc1ccc(-c2ccc3cnc(CNC(=O)c4cc(F)c5c(c4)S(=O)(=O)[C@@]([2H])(F)C([2H])([2H])C([2H])([2H])O5)cc3n2)nc1C1CC1(F)F (stereo partly shown) [Compound 378],11.1,43.63,–
[2H]C([2H])([2H])[C@@]([2H])(F)c1ccc(-c2ccc3cnc(CNC(=O)c4cc(Br)c5c(c4)S(=O)(=O)[C@@H](F)COC5)cc3n2)c(OC)n1 [Compound 502],9.6,38.00,–
CCOc1nc(C(C)(F)F)ccc1-c1ccc2cnc(CNC(=O)c3cc(F)c4c(c3)S(=O)(=O)[C@@H](F)COC4)cc2n1 [Compound 509],–,25.33,20.2
COc1nc(C(F)F)ccc1-c1ccc2cnc(CNC(=O)c3cc(Br)c4c(c3)S(=O)(=O)[C@@H](F)COC4)cc2n1 [Compound 410],14.3,27.39,–
COCCOc1nn(-c2ccc3cnc(CNC(=O)c4cc(Cl)c5c(c4)S(=O)(=O)[C@@H](F)COC5)cc3n2)cc1F [Compound 512],10,23.26,–
O=C(NCc1cc2nc(-c3ccc(OC(F)F)c(C4CC4)n3)ccc2cn1)c1cc(Br)c2c(c1)S(=O)(=O)[C@@H](F)COC2 [Compound 408],16.5,32.34,–
O=C(NCc1cc2nc(-c3ccc([C@H](F)C(F)F)c(C4CC4)n3)ccc2cn1)c1cc(C(F)F)c2c(c1)S(=O)(=O)[C@@H](F)COC2 [Compound 490],7.9,26.59,–
[2H]C([2H])([2H])C([2H])([2H])Oc1nc([C@@H](F)CF)ccc1-c1ccc2cnc(CNC(=O)c3cc(Br)c4c(c3)S(=O)(=O)[C@@H](F)COC4)cc2n1 [Compound 489],11.8,35.95,–
COCCCOc1cnc2c(c1)OCCN2c1ccc2cnc(CNC(=O)c3cc(C(F)F)c4c(c3)S(=O)(=O)[C@@H](F)COC4)cc2n1 [Compound 494],5.7,28.82,–
COCCOc1cnc2c(c1)CCCN2c1ccc2cnc(CNC(=O)c3cc(C(F)F)c4c(c3)S(=O)(=O)[C@@H](F)COC4)cc2n1 [Compound 439],13.3,27.20,–
COCCOc1cnc2c(c1)OCCN2c1ccc2cnc(CNC(=O)c3cc(C(F)F)c4c(c3)S(=O)(=O)[C@@H](F)COC4)cc2n1 [Compound 437],5.8,35.93,–
O=C(NCc1cc2nc(-c3ccc(OCCO)c(C4CC4)n3)ccc2cn1)c1cc(Cl)c2c(c1)S(=O)(=O)[C@@H](F)COC2 [Compound 428],20.3,26.26,–
CCOc1nccc2c1OCCN2c1ccc2cnc(CNC(=O)c3cc(Cl)c4c(c3)S(=O)(=O)[C@@H](F)COC4)cc2n1 [Compound 477],7.4,52.71,–
CCOc1nc(C(C)(F)F)ccc1-c1ccc2cnc(CNC(=O)c3cc(F)c4c(c3)S(=O)(=O)[C@@H](F)COC4)cc2n1 [Compound 471],–,25.44,8.2
COc1nc([C@@H](F)CF)ccc1-c1ccc2cnc(CNC(=O)c3cc(Br)c4c(c3)S(=O)(=O)[C@@H](F)COC4)cc2n1 [Compound 450],15.4,35.43,–
[2H]C([2H])([2H])C([2H])([2H])Oc1nc(C(F)F)ccc1-c1ccc2cnc(CNC(=O)c3cc(Br)c4c(c3)S(=O)(=O)[C@@H](F)COC4)cc2n1 [Compound 486],13.3,33.87,–
COCCOc1nn(-c2ccc3cnc(CNC(=O)c4cc(F)c5c(c4)S(=O)(=O)[C@@H](F)COC5)cc3n2)cc1F [Compound 508],11.5,21.72,–
COc1ccc(-c2ccc3cnc(CNC(=O)c4cc(C(F)F)c5c(c4)S(=O)(=O)[C@@H](F)COC5)cc3n2)nc1C1CC1(F)F (stereo partly shown) [Compound 434],8.7,41.19,–
[2H]C([2H])([2H])C([2H])([2H])Oc1ccc(-c2ccc3cnc(CNC(=O)c4cc(C(F)F)c5c(c4)S(=O)(=O)[C@@H](F)COC5)cc3n2)nc1C1CC1(F)F (stereo partly shown) [Compound 440],16.1,53.01,–

# The next lines start with the values.
"IC50 (Homo sapiens, A549, 6 h) [nM]",Ratio (MDA-MMTV IC50 (μM) divided by A549-MMTV IC50 (μM)),IC50 [nM],SMILES
23.9,52.60,–,[2H]C1([2H])Oc2c(Cl)cc(C(=O)NCc3cc4nc(-c5cccc(OC(F)F)n5)ccc4cn3)cc2S(=O)(=O)[C@@H](F)C1([2H])[2H] [Compound 418]
6.4,29.60,–,[2H]C([2H])([2H])Oc1nc([C@H](C)F)ccc1-c1ccc2cnc(CNC(=O)c3cc(F)c4c(c3)S(=O)(=O)[C@@H](F)CCO4)cc2n1 [Compound 384]
3,27.74,–,[2H]C([2H])([2H])c1cc(C(=O)NCc2cc3nc(-c4cccc(N5C[C@@H](C)O[C@@H](C)C5)n4)ccc3cn2)cc2c1OCC[C@H](F)S2(=O)=O [Compound 433]
25.1,47.75,–,O=C(NCc1cc2nc(-c3ccc(OC(F)F)c(C4CC4)n3)ccc2cn1)c1cc(Br)c2c(c1)S(=O)(=O)[C@@H](F)CCO2 [Compound 400]
17.3,34.06,–,O=C(NCc1cc2nc(-c3cccc(OCC(F)F)n3)ccc2cn1)c1cc(Cl)c2c(c1)S(=O)(=O)[C@@H](F)COC2 [Compound 387]
24.6,48.16,–,CN1Cc2c(Cl)cc(C(=O)NCc3cc4nc(-c5cccc(OC(F)F)n5)ccc4cn3)cc2S(=O)(=O)[C@H](F)C1 [Compound 466]
21.3,24.82,–,COc1nc(C(F)F)ccc1-c1ccc2cnc(CNC(=O)c3cc(Br)c4c(c3)S(=O)(=O)[C@@H](F)CCO4)cc2n1 [Compound 365]
22.2,31.16,–,O=C(NCc1cc2nc(-c3cccc(OC(F)(F)Cl)n3)ccc2cn1)c1cc(Cl)c2c(c1)S(=O)(=O)[C@@H](F)CCO2 [Compound 362]
21,28.13,–,"O=C(NCc1cc2nc(-c3ccc(C(F)F)nc3OCC3CC3)ccc2cn1)c1cc(F)c2c(c1)S(=O)(=O)[C@@H](F)CCO2 [Compound 332, (4R)—N-[[2-[2-(cyclopropylmethoxy)-6-(difluoromethyl)-3-pyridyl]-1,6-naphthyridin-7-yl]methyl]-4,9-difluoro-5,5-dioxo-3,4-dihydro-2H-1,5benzoxathiepine-7-carboxamide]"
13.8,25.74,–,CC(C)c1ccc(-c2ccc3cnc(CNC(=O)c4cc(F)c5c(c4)S(=O)(=O)[C@@H](F)CCO5)cc3n2)nc1C1CC1 [Compound 396]
14.2,29.67,–,[2H]C([2H])([2H])C([2H])([2H])Oc1nc([C@@H](F)CF)ccc1-c1ccc2cnc(CNC(=O)c3cc(Cl)c4c(c3)S(=O)(=O)[C@@H](F)CCO4)cc2n1 [Compound 454]
–,29.41,12.4,C[C@@H]1CCN1c1cnc2c(-c3ccc4cnc(CNC(=O)c5cc(Cl)c6c(c5)S(=O)(=O)[C@@H](F)COC6)cc4n3)cccc2c1 [Compound 497]
13.1,23.10,–,O=C(NCc1cc2nc(-c3ccc(OC(F)F)c(C4CC4)n3)ccc2cn1)c1cc(Cl)c2c(c1)S(=O)(=O)[C@@H](F)CCO2 [Compound 355]
7.3,26.43,–,COc1nc(OC(F)F)ccc1-c1ccc2cnc(CNC(=O)c3cc(F)c4c(c3)S(=O)(=O)[C@@H](F)CCO4)cc2n1 [Compound 388]
6.5,36.69,–,CCOc1nc([C@H](C)F)ccc1-c1ccc2cnc(CNC(=O)c3cc(F)c4c(c3)S(=O)(=O)[C@@H](F)CCO4)cc2n1 [Compound 375]
7.1,39.23,–,[2H]C([2H])([2H])C([2H])([2H])Oc1ccc(-c2ccc3cnc(CNC(=O)c4cc(F)c5c(c4)S(=O)(=O)[C@@H](F)COC5)cc3n2)nc1[C@@H]1CC1(F)F [Compound 464]
19.4,40.09,–,Cc1cc(C(=O)NCc2cc3nc(-c4cccc(C5CC5)n4)ccc3cn2)cc2c1OCC[C@H](F)S2(=O)=O [Compound 339]
15.2,27.83,–,C=C(F)c1cc(C(=O)NCc2cc3nc(-c4cccc(N5C[C@@H](C)O[C@@H](C)C5)n4)ccc3cn2)cc2c1OCC[C@H](F)S2(=O)=O [Compound 443]
12.9,24.67,–,O=C(NCc1cc2nc(-c3ccc(C(F)F)c(C4CC4(F)F)n3)ccc2cn1)c1cc(F)c2c(c1)S(=O)(=O)[C@@H](F)CCO2 (stereo partly shown) [Compound 399]
–,22.68,12.4,O=C(NCc1cc2nc(-c3ccc(OC(F)F)c(C4CC4)n3)ccc2cn1)c1cc(Cl)c2c(c1)S(=O)(=O)[C@@H](F)CCO2 [Compound 357]
15.3,22.09,–,CCOc1nc([C@@H](C)F)ccc1-c1ccc2cnc(CNC(=O)c3cc(F)c4c(c3)S(=O)(=O)[C@@H](F)CCO4)cc2n1 [Compound 376]
18.6,25.42,–,O=C(NCc1cc2nc(-c3ccnc(C4CC4)n3)ccc2cn1)c1cc(F)c2c(c1)S(=O)(=O)[C@@H](F)CCO2 [Compound 344]
